Test results from ChEMBL document CHEMBL4219066, “Identification and Mitigation of Reactive Metabolites of 2-Aminoimidazole-Containing Microsomal Prostaglandin E Synthase-1 Inhibitors Terminated Due to Clinical Drug-Induced Liver Injury” (J Med Chem, 2018).

Key:
Type in all cases: ADME, cell-based, Hepatocyte
[1] = Drug metabolism in rat hepatocytes assessed as metabolite formation at 2 uM after 4 hrs by LC-MS/MS analysis
[2] = Drug metabolism in human hepatocytes assessed as metabolite formation at 2 uM after 4 hrs by LC-MS/MS analysis
[3] = Drug level in human hepatocytes treated with 2-Chloro-N-(4-(hydroxymethyl)-1H-imidazol-2-yl)-5-(pivalamidomethyl)benzamide at 2 uM after 4 hrs by LC-MS/MS analysis
[4] = Drug level in rat hepatocytes treated with 2-Chloro-N-(4-(hydroxymethyl)-1H-imidazol-2-yl)-5-(pivalamidomethyl)benzamide at 2 uM after 4 hrs by LC-MS/MS analysis
[5] = Drug level in human hepatocytes treated with 2-(2-Chloro-5-(pivalamidomethyl)benzamido)-N-phenyl-1Himidazole-4-carboxamide at 2 uM after 4 hrs by LC-MS/MS analysis
[6] = Drug level in rat hepatocytes treated with 2-(2-Chloro-5-(pivalamidomethyl)benzamido)-N-phenyl-1Himidazole-4-carboxamide at 2 uM after 4 hrs by LC-MS/MS analysis
[7] = Drug metabolism in human hepatocytes assessed as N-carbamimidoyl-2-chloro-5-(pivalamidomethyl)benzamide formation at 2 uM after 4 hrs by LC-MS/MS analysis
[8] = Drug metabolism in rat hepatocytes assessed as N-carbamimidoyl-2-chloro-5-(pivalamidomethyl)benzamide formation at 2 uM after 4 hrs by LC-MS/MS analysis
[9] = Drug metabolism in rat hepatocytes assessed as 2-chloro-N-(4,5-dimethyl-1H-imidazol-2-yl)-5-((3-hydroxy-2,2-dimethylpropanamido)methyl)benzamide formation at 2 uM after 4 hrs by LC-MS/MS analysis
[10] = Drug metabolism in human hepatocytes assessed as 2-chloro-N-(4,5-dimethyl-1H-imidazol-2-yl)-5-((3-hydroxy-2,2-dimethylpropanamido)methyl)benzamide formation at 2 uM after 4 hrs by LC-MS/MS analysis
[11] = Drug metabolism in rat hepatocytes assessed as 2-chloro-N-(4-(hydroxymethyl)-5-methyl-1H-imidazol-2-yl)-5-(pivalamidomethyl)benzamide formation at 2 uM after 4 hrs by LC-MS/MS analysis
[12] = Drug metabolism in human hepatocytes assessed as 2-chloro-N-(4-(hydroxymethyl)-5-methyl-1H-imidazol-2-yl)-5-(pivalamidomethyl)benzamide formation at 2 uM after 4 hrs by LC-MS/MS analysis
[13] = Drug metabolism in rat hepatocytes assessed as 2-chloro-5-((3-hydroxy-2,2-dimethylpropanamido)methyl)-N-(4-methyl-1H-imidazol-2-yl)benzamide formation at 2 uM after 4 hrs by LC-MS/MS analysis
[14] = Drug metabolism in human hepatocytes assessed as 2-chloro-5-((3-hydroxy-2,2-dimethylpropanamido)methyl)-N-(4-methyl-1H-imidazol-2-yl)benzamide formation at 2 uM after 4 hrs by LC-MS/MS analysis
[15] = Drug metabolism in rat hepatocytes assessed as 2-chloro-N-(4-(hydroxymethyl)-1H-imidazol-2-yl)-5-(pivalamidomethyl)benzamide formation at 2 uM after 4 hrs by LC-MS/MS analysis
[16] = Drug metabolism in human hepatocytes assessed as 2-chloro-N-(4-(hydroxymethyl)-1H-imidazol-2-yl)-5-(pivalamidomethyl)benzamide formation at 2 uM after 4 hrs by LC-MS/MS analysis

Measured: Drug metabolism

CC(C)(C)C(=O)NCc1ccc(Cl)c(C(=O)Nc2nc(C(N)=O)c[nH]2)c1
Metabolite_Notdetected: [1] | [2]

CC(C)(C)C(=O)NCc1ccc(Cl)c(C(=O)Nc2nc(C(=O)O)c[nH]2)c1
Metabolite_Detected: [3] | [4] | [5] | [6]

Cc1nc(NC(=O)c2cc(CNC(=O)C(C)(C)C)ccc2Cl)[nH]c1C
Metabolite_Detected: [7] | [8] | [9] | [10] | [11] | [12]

Cc1c[nH]c(NC(=O)c2cc(CNC(=O)C(C)(C)C)ccc2Cl)n1
Metabolite_Detected: [7] | [8] | [13] | [14] | [15] | [16]
